From PMC4502315, “High Potency of a Novel Resveratrol Derivative, 3,3′,4,4′-Tetrahydroxy-trans-stilbene, against Ovarian Cancer Is Associated with an Oxidative Stress-Mediated Imbalance between DNA Damage Accumulation and Repair” (Oxidative Medicine and Cellular Longevity, 2015)

Experiments:
[1] = system: p38 MAPK; test: p38 MAPK activation (FACE ELISA), OVCAR-3; type: cell-based, human; details: 24 h, 10, 50, 100 μM tested
Procedure: Activation of p38 MAPK was examined using the Fast Activated Cell-Based ELISA (FACE) p38 kit (Active Motif) according to the manufacturer's instructions. In brief, cells were fixed with 4% formaldehyde and incubated with a primary antibody that recognizes either phosphorylated p38 or total p38 overnight at 4°C. Then the cells were washed and incubated with a secondary HRP-conjugated antibody for 1 h at room temperature. The color reaction that developed was read using a spectrofluorometer at 450 nm wavelength.
The results were expressed as a ratio of phosphorylated to total p38 activity.

[2] = system: caspase-3; test: Caspase-3 activity in ovarian cancer cell lysates; type: cell-based, human; details: ovarian cancer cells (A2780, OVCAR-3, SKOV-3); 24 h
Procedure: (§1) Identification of apoptosis was based on the presence of DNA condensation in cells stained with a fluorescent dye, Hoechst 33258 (Molecular Probes, Eugene, OR). Cells were grown on Lab-Tek Chamber Slides (Nunc, Roskilde, Denmark), fixed with 4% formaldehyde for 10 min and washed twice with PBS. Then the cells were incubated with Hoechst 33258 (0.1 μg/mL) for 5 min in the dark. After washing with PBS, stained nuclei were observed and counted under a Zeiss Axio Observer D1 fluorescence microscope (Carl Zeiss, Jena, Germany). The activity of caspases 3, 8, and 9 was quantified in the cell lysates using specific colorimetric kits (Abcam, Cambridge, UK) according to the manufacturer's instructions.

[3] = system: ovarian cancer cells (A2780, OVCAR-3, SKOV-3); test: Efficiency of 8-OH-dG repair after 24-h recovery, ovarian cancer cells; type: cell-based, human; details: all three cancer cell lines; 24-h stilbene exposure then 24-h recovery
Procedure: (§2) Oxidative DNA damage was assessed by measuring the 8-OH-dG concentration with a competitive immunoassay (Cell Biolabs Inc.), as per manufacturer's instructions. The efficiency of 8-OH-dG repair was estimated after cell recovery for 24 h in standard growth medium. In order to examine the activity of DNA glycosylase I, reverse transcription PCR was performed. RNA extraction was carried out using the RNA Bee (Tel-Test, Friendswood, Texas, USA) and purified according to the manufacturer's protocol. One microgram of RNA was reverse transcribed into cDNA with random hexamer primers, and cDNA was subjected to PCR. The profile of the replication cycles was denaturation at 94°C for 50 s, annealing at 58°C for 50 s, and polymerization at 72°C for 1 min. In each reaction, the expression of glyceraldehyde-3-phosphate dehydrogenase (GAPDH) served as the internal control. The primers used for PCR were as follows: hOGG1 forward, 5′-[…]-3′; hOGG1 reverse, 5′-TAGCCCGCCCTGTTCTTC-3′ designed to amplify a 551-bp region; GAPDH forward, 5′-CCATGGAGAAGGCTGGGG-3′; and GAPDH reverse 5′-[…]-3′ designed to amplify a 194-bp region (total number of cycles: 28). The PCR products were separated on 3% agarose gels stained with ethidium bromide and then visualized.
The cancer cells were treated with RVT and 3,3′,4,4′-THS to cause DNA injury; then they were washed and kept in standard growth medium to recover.

[4] = system: HOSE cells; test: MTT viability assay, HOSE cells; type: cell-based, human; details: 24 h; for IC50: Homo sapiens, CalcuSyn; for concentration up to which viability was unchanged: cytotoxicity tests (MTT and LDH release)
Procedure: (§3) Cell viability was assessed with the MTT test and with lactate dehydrogenase (LDH) release assay. As per the MTT method, normal and cancer cells were seeded into 96-well plates at high density and allowed to attach overnight. Then they were incubated in a medium containing 1.25 mg/mL of the MTT salt [3-(4,5-dimethylthiazol-2-yl)-2,5-diphenyltetrazolium bromide] for 24 h at 37°C. The generated formazan was solubilized with 20% sodium dodecyl sulphate and 50% N,N-dimethylformamide. Absorbance of the converted dye was recorded at 595 nm with a reference wavelength of 690 nm.
(§4) In order to examine the effect of 3,3′,4,4′-THS on the viability of ovarian cancer cells and to compare its activity with RVT, subconfluent cultures of A2780, OVCAR-3, and SKOV-3 cells were subjected to a wide range of stilbene concentrations (0–500 μM) for 24 h; then MTT and LDH release assays were performed.

[5] = system: catalase (CAT); test: CAT activity, HPMCs; type: cell-based, human; details: 24 h, percentage of control cells
Procedure: Total activity of superoxide dismutase (SOD) was measured in cell lysates with a commercially available kit (R&D Systems Europe, Abingdon, UK), while the activity of catalase (CAT) was estimated by using the OxiSelect Catalase Activity Assay Kit (Cell Biolabs Inc., San Diego, CA, USA). Both assays were performed according to the manufacturer's instructions.

[6] = system: HOSE cells; test: Oxidative DNA damage (8-OH-dG immunoassay), HOSE cells; type: cell-based, human; details: 24 h, percentage of control cells
Procedure: as §2

[7] = system: SKOV-3 cells; test: Apoptosis (Hoechst 33258), SKOV-3; type: cell-based, human; details: 24 h, 10, 50, 100 μM tested
Procedure: as §1

[8] = system: A2780 cells; test: ROS production (H2DCFDA), A2780; type: cell-based, human; details: 24 h, 10, 50, 100 μM tested
Procedure: ROS production was assessed in cells probed with a fluorescent dye, 2′,7′-dichlorodihydrofluorescein diacetate (H2DCFDA; 5 μM) (Molecular Probes, Eugene, USA) for 45 min at 37°C. Fluorescence intensity in cell lysates was monitored in a Victor2 spectrofluorometer with excitation at 485 nm and emission at 535 nm.

[9] = system: OVCAR-3; test: MTT viability assay, OVCAR-3; type: cell-based; details: Homo sapiens, 24 h; for IC50: CalcuSyn
Procedure: as §3, §4

[10] = system: OVCAR-3 cells; test: Apoptosis (Hoechst 33258), OVCAR-3; type: cell-based, human; details: 24 h, 10, 50, 100 μM tested
Procedure: as §1

[11] = system: HOSE cells; test: Apoptosis (Hoechst 33258), HOSE cells; type: cell-based, human; details: 24 h, percentage of control cells
Procedure: as §1

[12] = system: OVCAR-3; test: LDH release assay, OVCAR-3; type: cell-based; details: Homo sapiens, 24 h; for IC50: CalcuSyn
Procedure: As per LDH release, the measurements were performed using the commercially available Pierce LDH Cytotoxicity Assay Kit (Pierce Biotechnology, Rockford, IL, USA). In this assay, cells with damaged plasma membranes release LDH into the culture environment; then the enzyme catalyses the conversion of lactate to pyruvate, which is accompanied by a reduction of NAD^+ to NADH. Afterwards, diaphorase uses NADH to reduce a tetrazolium salt to a formazan whose level is proportional to LDH activity. The absorbance emitted by the formazan was monitored at 490 nm with a reference wavelength of 680 nm.
as §4

[13] = system: caspase-9; test: Caspase-9 activity in ovarian cancer cell lysates; type: cell-based, human; details: ovarian cancer cells (A2780, OVCAR-3, SKOV-3); 24 h
Procedure: as §1

[14] = system: HPMCs; test: Apoptosis (Hoechst 33258), HPMCs; type: cell-based, human; details: 24 h, percentage of control cells
Procedure: as §1

[15] = 10 μM, percentage of control cells
[16] = 50 μM, percentage of control cells
[17] = 100 μM, percentage of control cells

Row | Compound | p38 MAPK activity (phosphorylated/total), effect in words [1] | caspase-3 activity, effect in words [2] | 8-OH-dG level after 24-h recovery in standard growth medium, in words [3] | IC50 [4] | concentration up to which viability was unchanged [4] | CAT ([5]; 10 μM) | CAT ([5]; 50 μM) | CAT ([5]; 100 μM) | 8-OH-dG ([6]; 10 μM) | 8-OH-dG ([6]; 50 μM) | 8-OH-dG ([6]; 100 μM) | incidence of apoptosis (rise in percentage of death cells), effect in words [7] | generation of ROS, effect in words [8] | IC50 [9] | incidence of apoptosis (rise in percentage of death cells), effect in words [10] | Apoptosis ([11]; 10 μM) | Apoptosis ([11]; 50 μM) | Apoptosis ([11]; 100 μM) | IC50 [12] | caspase-9 activity, effect in words [13] | also measured
1 | Oc1ccc(/C=C/c2ccc(O)c(O)c2)cc1O [3,3′,4,4′-THS, 3,3′,4,4′-tetrahydroxy-trans-stilbene] | exerted upregulatory activity at 50 and 100 μM | increased the activity of the same caspases as RVT did | still markedly higher than in the unstimulated cells | 502 µM | ≤ 400 µM | 112 ± 2^∗# % | 123 ± 4^∗# % | 154 ± 1^∗# % | 103 ± 3% | 76 ± 3^∗# % | 71 ± 2^∗# % | evident starting from the lowest concentration of 10 μM | markedly upregulated the generation of ROS | 50 µM | evident starting from the lowest concentration of 10 μM | 101 ± 1% | 100 ± 2% | 102 ± 2% | 85 µM | increased the activity of the same caspases as RVT did | viability at 10 µM [9, 15]: 75 ± 3%; viability at 50 µM [9, 16]: 50 ± 3%; viability at 100 µM [9, 17]: 48 ± 3%; viability at 10 µM [12, 15]: 62 ± 12%; viability at 50 µM [12, 16]: 53 ± 3%; viability at 100 µM [12, 17]: 46 ± 3%; Apoptosis ([14]; 10 μM): 98 ± 2%; Apoptosis ([14]; 50 μM): 102 ± 2%; Apoptosis ([14]; 100 μM): 100 ± 4%
2 | Oc1ccc(/C=C/c2cc(O)cc(O)c2)cc1 [RVT, 3,4′,5-trihydroxy-trans-stilbene, reference compound] | failed to activate p38 MAPK | activated caspases 9 and 3, and this activity was evident at 50 and 100 μM | returned to basal values within 24 h | 485 µM | ≤ 400 µM | 101 ± 1% | 103 ± 4% | 118 ± 3^∗ % | 103 ± 5% | 102 ± 5% | 82 ± 4^∗ % | exhibiting its impact at concentrations of 50 and 100 μM for the A2780 and SKOV-3 cells | (at 50 and 100 μM) inhibited the production of ROS | 480 µM | at 100 μM for the OVCAR-3 cells | 99 ± 2% | 101 ± 2% | 102 ± 3% | 525 µM | activated caspases 9 and 3, and this activity was evident at 50 and 100 μM | Apoptosis ([14]; 10 μM): 101 ± 1%; Apoptosis ([14]; 50 μM): 101 ± 1%; Apoptosis ([14]; 100 μM): 98 ± 3%
